The values below come from PubChem BioAssay (NCI).

Each structure is given as a SMILES string.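 Five compound concentrations were applied to cells in 96-well plates for 48 hours; endpoints were derived by simple linear interpolation of the resulting dose-response curve. GI50: concentration for 50% inhibition of growth. The concentration for full growth arrest is given as TGI.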

Holding throughout (experiment): DTP human tumour cell line panel, 48 h
Assay [1] has as its system HL-60(TB) leukemia.
The test system of assay [2] is HOP-62 NSCLC.
Assay [3] deals with KM12 colon.
Assay [4] concerns MCF7 breast.
In assay [5] the test system is MDA-MB-435.
Assay [6] deals with NCI-H460 lung.
Assay [7] concerns NCI-H522 lung.
Assay [8] deals with OVCAR-8 ovarian.
The test system of assay [9] is SK-OV-3 ovarian.
Assay [10] deals with T-47D breast.

In general, GI50 refers to the concentration giving 50% growth inhibition. Broadly, the TGI is the concentration giving total growth inhibition. `O=C(Nc1ccc(I)cc1F)c1cc(F)ccc1O`: the GI50 in [1] was 0.382 µM; in assay [2], 1.77 µM; in [3], 2.21 µM; in assay [4], 1.48 µM; in assay [5] it was 0.512 µM; in assay [6] it was 0.456 µM. For the same compound, the 50% growth inhibitory concentration (GI50) in assay [7] was 0.304 µM; in assay [8] it was 1.07 µM; in [9], 0.465 µM; in [10], 0.313 µM. In addition, the TGI is 1.93 µM in assay [1]; 6.46 µM in assay [2]; 6.23 µM in assay [3]; above 25.3 µM in assay [4]; 4.45 µM in assay [5]; above 27.7 µM in [6]. In addition, the results for the total growth inhibition concentration (TGI) in assay [8], in assay [9] and in assay [10] were 48.7 µM, 2.59 µM and 3 µM, respectively.
Regarding `CCn1c(-c2nonc2N)nc2c(C#CC(C)(C)O)ncc(OCC3CCNCC3)c21`, the GI50 in assay [1] is 6.63 µM; in [2], 11.5 µM; in [3], 7.58 µM; in assay [4], 6.19 µM; in assay [5], 13.7 µM; in assay [6], 18.2 µM. Besides, the GI50 in assay [7] was 9.07 µM; in assay [8], 9.68 µM; in assay [9], 10.4 µM; in assay [10], above 25 µM. Moreover, the TGI in assay [1] was 17.2 µM; in assay [2], above 25 µM; in [3], above 25 µM; in assay [4] it was above 25 µM; in assay [5], above 25 µM; in assay [6], above 25 µM. Besides, the concentration for total growth inhibition (TGI) in [7], in [8], in [9] and in assay [10] was above 25 µM throughout.
Turning to `COC(=O)C1=C(C)NC(C)=C(C(=O)OC)C1c1ccccc1[N+](=O)[O-]`, the GI50 in assay [1] is 31.7 µM; in assay [2] it was above 100 µM; in assay [3] it was above 100 µM; in assay [4], above 100 µM; in assay [5] it was above 100 µM; in assay [6], 97.6 µM. For the same compound, the GI50 in assay [7] is above 100 µM; in assay [8], 64.8 µM; in assay [9] it was above 100 µM; in [10], 50.9 µM. Also, the TGI in assay [1], in assay [2], in assay [3], in assay [4], in [5] and in assay [6] was above 100 µM each time. In addition, the total growth inhibition concentration (TGI) in assay [7], in assay [8], in assay [9] and in [10] was above 100 µM each time.
As to `COC(=O)CCCCCCCCC(=O)c1c(C)[nH]c(/C=C2\N=C(c3ccc[nH]3)C=C2OC)c1C`, the GI50 in assay [1] was 2.86 µM; in assay [2], 11.2 µM; in assay [3] it was above 69.9 µM; in [4], 64.4 µM; in assay [5] it was 3.92 µM; in assay [6] it was 3.57 µM. In addition, the GI50 in assay [7] was 8.55 µM; in assay [8], 14.4 µM; in assay [9], above 100 µM; in [10] it was above 48.1 µM. The TGI is 16.6 µM in assay [1]; above 57.9 µM in [2]; above 100 µM in [3]; above 100 µM in [4]; above 100 µM in [5]; above 100 µM in assay [6]. The TGI in [7] is above 69.9 µM; in [8] it was above 59.9 µM; in assay [9] it was above 100 µM; in [10] it was above 89.3 µM.
Regarding `CCCCOc1nc2ccccc2cc1C1CNC(=O)c2ccccc2N1` (stereo unspecified), the GI50 in assay [1] was 0.357 µM; in assay [2], 3.08 µM; in assay [3] it was 3.31 µM; in [4] it was 2.23 µM; in [5], 0.546 µM; in assay [6], 3.16 µM. For the same compound, the GI50 in assay [7] is 2.75 µM; in [8], 3.64 µM; in [9], 2.94 µM; in assay [10], 5.55 µM. Besides, the concentration for total growth inhibition (TGI) in assay [1] came to 1.9 µM; in [2], 17.7 µM; in [3], 72.5 µM; in assay [4] it was 15.4 µM; in [5], 1.82 µM; in [6], 11.5 µM. The TGI in [7] is 21.2 µM; in assay [8], 15.7 µM; in assay [9] it was 13.3 µM; in [10], above 100 µM.
Consider `O=C(O)c1ccccc1/C=C1/Nc2ccccc2C1=O`, for which the TGI in assay [1], in assay [2], in assay [3], in [4], in [5] and in [6] was above 100 µM in each case. For the same compound, the concentration for total growth inhibition (TGI) in [8], in [9] and in assay [10] was above 100 µM in each case.
Consider `CCN1CCN(c2nc(NNC(=O)c3cccc(OC)c3)nc(N3CCN(C(c4ccccc4)c4ccccc4)CC3)n2)CC1`, for which the GI50 is 5.76 µM in [2]; 2.28 µM in [3]; 1.7 µM in assay [5]; 1.75 µM in assay [6]; 2.72 µM in [9]; 2.27 µM in [10]. In addition, the total growth inhibition concentration (TGI) was determined as 23.5 µM in assay [2]; 5.48 µM in assay [3]; 3.19 µM in assay [5]; 3.39 µM in [6]; 7.08 µM in assay [9]; 7.18 µM in assay [10].
As to `CC1CCCc2c(CC3CC(=O)NC(=O)C3)nc(N)nc21` (stereo unspecified), the TGI in assay [1], in assay [2], in assay [3], in assay [4], in [5] and in assay [8] was above 100 µM in each case. Further, the TGI in assay [9] and in [10] was above 100 µM each time.
Regarding `BrCC[N+]12CCCN1CCC2`, the TGI was 12.9 µM in [1]; above 70.5 µM in assay [2]; above 94.6 µM in [3]; 48.9 µM in assay [6]; 1.71 µM in assay [7]; 39.3 µM in [8]. Also, the figures for the concentration for total growth inhibition (TGI) in assay [9] and in assay [10] were above 93.3 µM and 35.2 µM, respectively.
